From patent US20110039721A1, “METHOD FOR PREDICTION ABOUT CARCINOGENICITY OF SUBSTANCE IN RODENT” (Chemicals Evaluation and Research Institute, priority 2007, published 2011)
Read-outs that look alike come from different tables or passages of the source.

How the values were obtained:
liver = details: cited from earlier work
[1] = tested on: mRNA expressed from the genes (A) to (D) in rat liver; test: Behavior of genes (mRNA expression level, oligo-DNA microarray) in rat liver after 28-day oral administration; format: in vivo; details: for Behavior of gene caused by administration of chemical substance, Gene No. 4846 / Behavior of gene caused by administration of chemical substance, Gene No. 2026 / Behavior of gene caused by administration of chemical substance, Gene No. 4218 / Behavior of gene caused by administration of chemical substance, Gene No. 6182 / Behavior of gene caused by administration of chemical substance, Gene No. 5600: gene group (A); for Behavior of gene caused by administration of chemical substance, Gene No. 4846: Unigene No. Rn.144554; for Behavior of gene caused by administration of chemical substance, Gene No. 2026 / Behavior of gene caused by administration of chemical substance, Gene No. 4218: Unigene No. Rn.167075; for Behavior of gene caused by administration of chemical substance, Gene No. 6182: Unigene No. Rn.5834; for Behavior of gene caused by administration of chemical substance, Gene No. 5600: Unigene No. Rn.9836; for Behavior of gene caused by administration of chemical substance, Gene No. 1494 / Behavior of gene caused by administration of chemical substance, Gene No. 2045 / Behavior of gene caused by administration of chemical substance, Gene No. 2203: gene group (B); for Behavior of gene caused by administration of chemical substance, Gene No. 1494: Unigene No. Rn.1430; for Behavior of gene caused by administration of chemical substance, Gene No. 2045: Unigene No. Rn.19329; for Behavior of gene caused by administration of chemical substance, Gene No. 2203: Unigene No. Rn.21240; for Behavior of gene caused by administration of chemical substance, Gene No. 533 / Behavior of gene caused by administration of chemical substance, Gene No. 725 / Behavior of gene caused by administration of chemical substance, Gene No. 1163 / Behavior of gene caused by administration of chemical substance, Gene No. 4973 / Behavior of gene caused by administration of chemical substance, Gene No. 4095 / Behavior of gene caused by administration of chemical substance, Gene No. 1334 / Behavior of gene caused by administration of chemical substance, Gene No. 6620 / Behavior of gene caused by administration of chemical substance, Gene No. 6303 / Behavior of gene caused by administration of chemical substance, Gene No. 5878 / Behavior of gene caused by administration of chemical substance, Gene No. 1131 / Behavior of gene caused by administration of chemical substance, Gene No. 1562 / Behavior of gene caused by administration of chemical substance, Gene No. 1741 / Behavior of gene caused by administration of chemical substance, Gene No. 893 / Behavior of gene caused by administration of chemical substance, Gene No. 6026 / Behavior of gene caused by administration of chemical substance, Gene No. 154 / Behavior of gene caused by administration of chemical substance, Gene No. 1993 / Behavior of gene caused by administration of chemical substance, Gene No. 813 / Behavior of gene caused by administration of chemical substance, Gene No. 2494 / Behavior of gene caused by administration of chemical substance, Gene No. 2546 / Behavior of gene caused by administration of chemical substance, Gene No. 3776 / Behavior of gene caused by administration of chemical substance, Gene No. 3929 / Behavior of gene caused by administration of chemical substance, Gene No. 1119 / Behavior of gene caused by administration of chemical substance, Gene No. 6742 / Behavior of gene caused by administration of chemical substance, Gene No. 5634: gene group (C); for Behavior of gene caused by administration of chemical substance, Gene No. 533: Unigene No. Rn.106184; for Behavior of gene caused by administration of chemical substance, Gene No. 725: Unigene No. Rn.108075; for Behavior of gene caused by administration of chemical substance, Gene No. 1163: Unigene No. Rn.11766; for Behavior of gene caused by administration of chemical substance, Gene No. 4973: Unigene No. Rn.118529; for Behavior of gene caused by administration of chemical substance, Gene No. 4095: Unigene No. Rn.119024; for Behavior of gene caused by administration of chemical substance, Gene No. 1334 / Behavior of gene caused by administration of chemical substance, Gene No. 6620: Unigene No. Rn.120914; for Behavior of gene caused by administration of chemical substance, Gene No. 6303: Unigene No. Rn.123063; for Behavior of gene caused by administration of chemical substance, Gene No. 5878: Unigene No. Rn.143213; for Behavior of gene caused by administration of chemical substance, Gene No. 1131: Unigene No. Rn.144946; for Behavior of gene caused by administration of chemical substance, Gene No. 1562: Unigene No. Rn.14744; for Behavior of gene caused by administration of chemical substance, Gene No. 1741: Unigene No. Rn.1647; for Behavior of gene caused by administration of chemical substance, Gene No. 893: Unigene No. Rn.164817; for Behavior of gene caused by administration of chemical substance, Gene No. 6026: Unigene No. Rn.167685; for Behavior of gene caused by administration of chemical substance, Gene No. 154: Unigene No. Rn.185941; for Behavior of gene caused by administration of chemical substance, Gene No. 1993: Unigene No. Rn.18728; for Behavior of gene caused by administration of chemical substance, Gene No. 813: Unigene No. Rn.201760; for Behavior of gene caused by administration of chemical substance, Gene No. 2494: Unigene No. Rn.23969; for Behavior of gene caused by administration of chemical substance, Gene No. 2546: Unigene No. Rn.24561; for Behavior of gene caused by administration of chemical substance, Gene No. 3776: Unigene No. Rn.43232; for Behavior of gene caused by administration of chemical substance, Gene No. 3929: Unigene No. Rn.4620; for Behavior of gene caused by administration of chemical substance, Gene No. 1119: Unigene No. Rn.9757; for Behavior of gene caused by administration of chemical substance, Gene No. 6742: Unigene No. Rn.9779; for Behavior of gene caused by administration of chemical substance, Gene No. 5634: Unigene No. Rn.9862; for Behavior of gene caused by administration of chemical substance, Gene No. 5726: gene group (D), Unigene No. Rn.9939
Procedure, shortened: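 Rat liver RNA after 28 days of daily gavage dosing (male F344, 5 weeks old, four per group). A change reaching 1.5-fold, or 1/1.5, against solvent control scores as significant; opposite direction versus another carcinogen scores as not significant.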

[2] = classification of the substance (M+/M−); cited from earlier work
rodent = details: classification of the substance (C+/C−); cited from earlier work

| SMILES | Behavior of gene caused by administration of chemical substance, Gene No. 4846 [1] | Behavior of gene caused by administration of chemical substance, Gene No. 2026 [1] | Behavior of gene caused by administration of chemical substance, Gene No. 4218 [1] | Behavior of gene caused by administration of chemical substance, Gene No. 6182 [1] | Behavior of gene caused by administration of chemical substance, Gene No. 5600 [1] | Behavior of gene caused by administration of chemical substance, Gene No. 1494 [1] | Behavior of gene caused by administration of chemical substance, Gene No. 2045 [1] | Behavior of gene caused by administration of chemical substance, Gene No. 2203 [1] | Behavior of gene caused by administration of chemical substance, Gene No. 533 [1] | Behavior of gene caused by administration of chemical substance, Gene No. 725 [1] | Behavior of gene caused by administration of chemical substance, Gene No. 1163 [1] | Behavior of gene caused by administration of chemical substance, Gene No. 4973 [1] | Behavior of gene caused by administration of chemical substance, Gene No. 4095 [1] | Behavior of gene caused by administration of chemical substance, Gene No. 1334 [1] | Behavior of gene caused by administration of chemical substance, Gene No. 6620 [1] | Behavior of gene caused by administration of chemical substance, Gene No. 6303 [1] | Behavior of gene caused by administration of chemical substance, Gene No. 5878 [1] | Behavior of gene caused by administration of chemical substance, Gene No. 1131 [1] | Behavior of gene caused by administration of chemical substance, Gene No. 1562 [1] | Behavior of gene caused by administration of chemical substance, Gene No. 1741 [1] | further results |
| --- | --- | --- | --- | --- | --- | --- | --- | --- | --- | --- | --- | --- | --- | --- | --- | --- | --- | --- | --- | --- | --- |
| CC(=O)Oc1ccccc1C(=O)O [TS071, Aspirin] | − | − | − | − | − | − | − | − | − | − | − | − | − | − | − | − | − | + | − | − | Liver carcinogenicity (liver; classification of the substance (Cr+/Cr−)): Cr−; Behavior of gene caused by administration of chemical substance, Gene No. 893 [1]: −; Behavior of gene caused by administration of chemical substance, Gene No. 6026 [1]: −; Behavior of gene caused by administration of chemical substance, Gene No. 154 [1]: −; Behavior of gene caused by administration of chemical substance, Gene No. 1993 [1]: −; Behavior of gene caused by administration of chemical substance, Gene No. 813 [1]: −; Behavior of gene caused by administration of chemical substance, Gene No. 2494 [1]: −; Behavior of gene caused by administration of chemical substance, Gene No. 2546 [1]: −; Behavior of gene caused by administration of chemical substance, Gene No. 3776 [1]: −; Behavior of gene caused by administration of chemical substance, Gene No. 3929 [1]: −; Behavior of gene caused by administration of chemical substance, Gene No. 1119 [1]: −; Behavior of gene caused by administration of chemical substance, Gene No. 6742 [1]: −; Behavior of gene caused by administration of chemical substance, Gene No. 5634 [1]: −; Behavior of gene caused by administration of chemical substance, Gene No. 5726 [1]: −; Mutagenicity by Ames test [2]: M−; Carcinogenicity (rodent): C− |
| NC(=O)c1ccccc1C(N)=O [TS073, Phthalamide] | − | − | − | − | − | − | + | − | − | − | − | − | − | − | − | − | − | − | − | − | Liver carcinogenicity (liver; in vivo): Cr−; Behavior of gene caused by administration of chemical substance, Gene No. 893 [1]: −; Behavior of gene caused by administration of chemical substance, Gene No. 6026 [1]: −; Behavior of gene caused by administration of chemical substance, Gene No. 154 [1]: −; Behavior of gene caused by administration of chemical substance, Gene No. 1993 [1]: −; Behavior of gene caused by administration of chemical substance, Gene No. 813 [1]: −; Behavior of gene caused by administration of chemical substance, Gene No. 2494 [1]: −; Behavior of gene caused by administration of chemical substance, Gene No. 2546 [1]: −; Behavior of gene caused by administration of chemical substance, Gene No. 3776 [1]: −; Behavior of gene caused by administration of chemical substance, Gene No. 3929 [1]: −; Behavior of gene caused by administration of chemical substance, Gene No. 1119 [1]: −; Behavior of gene caused by administration of chemical substance, Gene No. 6742 [1]: −; Behavior of gene caused by administration of chemical substance, Gene No. 5634 [1]: −; Behavior of gene caused by administration of chemical substance, Gene No. 5726 [1]: −; Mutagenicity by Ames test [2]: M−; Carcinogenicity (rodent): C− |
